Data reported in PubChem BioAssay (NCI).
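GI50 marks 50% less growth. Definition used: TGI = concentration required for complete inhibition of growth.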

Assays:
Test in all cases: NCI-60 cell line screen, 384-well format
786-0 renal = test system: 786-0 renal
A498 renal = test system: A498 renal
A549 NSCLC = test system: A549 NSCLC
ACHN renal = test system: ACHN renal
BT-549 breast = test system: BT-549 breast
CAKI-1 renal = test system: CAKI-1 renal
CCRF-CEM leukemia = test system: CCRF-CEM leukemia
COLO 205 colon = test system: COLO 205 colon
DU-145 prostate = test system: DU-145 prostate
EKVX NSCLC = test system: EKVX NSCLC
HCC-2998 colon = test system: HCC-2998 colon
HCT-116 colon = test system: HCT-116 colon
HCT-15 colon = test system: HCT-15 colon
HL-60(TB) leukemia = test system: HL-60(TB) leukemia
HOP-62 NSCLC = test system: HOP-62 NSCLC
HOP-92 NSCLC = test system: HOP-92 NSCLC
HT29 colon = test system: HT29 colon
IGROV1 ovarian = test system: IGROV1 ovarian
K-562 leukemia = test system: K-562 leukemia
KM12 colon = test system: KM12 colon
LOX IMVI melanoma = test system: LOX IMVI melanoma
M14 melanoma = test system: M14 melanoma
MALME-3M melanoma = test system: MALME-3M melanoma
MCF7 breast = test system: MCF7 breast
MDA-MB-231 breast = test system: MDA-MB-231 breast
MDA-MB-435 melanoma = test system: MDA-MB-435 melanoma
MDA-MB-468 breast = test system: MDA-MB-468 breast
MOLT-4 leukemia = test system: MOLT-4 leukemia
NCI-H226 lung = test system: NCI-H226 lung
NCI-H23 lung = test system: NCI-H23 lung
NCI-H322M lung = test system: NCI-H322M lung
NCI-H460 NSCLC = test system: NCI-H460 NSCLC
NCI-H522 lung = test system: NCI-H522 lung
NCI/ADR-RES ovarian = test system: NCI/ADR-RES ovarian
OVCAR-3 ovarian = test system: OVCAR-3 ovarian
OVCAR-4 ovarian = test system: OVCAR-4 ovarian
OVCAR-5 ovarian = test system: OVCAR-5 ovarian
OVCAR-8 ovarian = test system: OVCAR-8 ovarian
PC-3 prostate = test system: PC-3 prostate
RPMI-8226 leukemia = test system: RPMI-8226 leukemia
RXF 393 renal = test system: RXF 393 renal
SF-268 CNS = test system: SF-268 CNS
SF-295 CNS = test system: SF-295 CNS
SF-539 CNS = test system: SF-539 CNS
SK-MEL-2 melanoma = test system: SK-MEL-2 melanoma
SK-MEL-28 melanoma = test system: SK-MEL-28 melanoma
SK-MEL-5 melanoma = test system: SK-MEL-5 melanoma
SK-OV-3 ovarian = test system: SK-OV-3 ovarian
SN12C renal = test system: SN12C renal
SNB-19 CNS = test system: SNB-19 CNS
SNB-75 CNS = test system: SNB-75 CNS
SR leukemia = test system: SR leukemia
SW-620 colon = test system: SW-620 colon
T-47D breast = test system: T-47D breast
TK-10 renal = test system: TK-10 renal
U251 glioblastoma = test system: U251 glioblastoma
UACC-257 melanoma = test system: UACC-257 melanoma
UACC-62 melanoma = test system: UACC-62 melanoma
UO-31 renal = test system: UO-31 renal

CC#C/C(=N\OC[C@H]1COCCN1)c1ccc2ncnc(Nc3ccc(OCc4cccc(F)c4)c(Cl)c3)c2c1
GI50 ([…]-0 renal): 1.31 µM
TGI (786-0 renal): 2.6 µM
GI50 (A498 renal): 1.13 µM
TGI (A498 renal): 2.34 µM
GI50 (A549 NSCLC): 1.17 µM
TGI (A549 NSCLC): 2.42 µM
GI50 (ACHN renal): 0.523 µM
TGI (ACHN renal): 1.99 µM
GI50 (BT-549 breast): 1.51 µM
TGI (BT-549 breast): 2.85 µM
GI50 (CAKI-1 renal): 1.12 µM
TGI (CAKI-1 renal): 2.34 µM
GI50 (CCRF-CEM leukemia): 1.5 µM
TGI (CCRF-CEM leukemia): 2.84 µM
GI50 (COLO 205 colon): 1.96 µM
TGI (COLO 205 colon): 3.38 µM
GI50 (DU-145 prostate): 1.16 µM
TGI (DU-145 prostate): 2.42 µM
GI50 (EKVX NSCLC): 1.27 µM
TGI (EKVX NSCLC): 2.54 µM
GI50 (HCC-2998 colon): 1.54 µM
TGI (HCC-2998 colon): 2.89 µM
GI50 (HCT-116 colon): 1.66 µM
TGI (HCT-116 colon): 3.05 µM
GI50 (HCT-15 colon): 1.67 µM
TGI (HCT-15 colon): 3.05 µM
GI50 (HL-60(TB) leukemia): 2.23 µM
TGI (HL-60(TB) leukemia): 3.69 µM
GI50 (HOP-62 NSCLC): 1.62 µM
TGI (HOP-62 NSCLC): 2.98 µM
GI50 (HOP-92 NSCLC): 0.981 µM
TGI (HOP-92 NSCLC): 2.18 µM
GI50 (HT29 colon): 1.65 µM
TGI (HT29 colon): 3.04 µM
GI50 (IGROV1 ovarian): 0.261 µM
TGI (IGROV1 ovarian): 1.87 µM
GI50 (K-562 leukemia): 1.7 µM
TGI (K-562 leukemia): 3.09 µM
GI50 (KM12 colon): 1.76 µM
TGI (KM12 colon): 3.16 µM
GI50 (LOX IMVI melanoma): 1.91 µM
TGI (LOX IMVI melanoma): 3.33 µM
GI50 (M14 melanoma): 1.95 µM
TGI (M14 melanoma): 3.37 µM
GI50 (MALME-3M melanoma): 1.76 µM
TGI (MALME-3M melanoma): 3.15 µM
GI50 (MCF7 breast): 1.5 µM
TGI (MCF7 breast): 2.85 µM
GI50 (MDA-MB-231 breast): 1.73 µM
TGI (MDA-MB-231 breast): 3.11 µM
GI50 (MDA-MB-435 melanoma): 1.89 µM
TGI (MDA-MB-435 melanoma): 3.31 µM
GI50 (MDA-MB-468 breast): 0.0557 µM
TGI (MDA-MB-468 breast): 0.368 µM
GI50 (MOLT-4 leukemia): 1.44 µM
TGI (MOLT-4 leukemia): 2.76 µM
GI50 (NCI-H226 lung): 1.8 µM
TGI (NCI-H226 lung): 3.38 µM
GI50 (NCI-H23 lung): 2.02 µM
TGI (NCI-H23 lung): 3.98 µM
GI50 (NCI-H322M lung): 0.102 µM
TGI (NCI-H322M lung): 1.23 µM
GI50 (NCI-H460 NSCLC): 1.75 µM
TGI (NCI-H460 NSCLC): 3.18 µM
GI50 (NCI-H522 lung): 0.0482 µM
TGI (NCI-H522 lung): 1.29 µM
GI50 (NCI/ADR-RES ovarian): 1.49 µM
TGI (NCI/ADR-RES ovarian): 4.02 µM
GI50 (OVCAR-3 ovarian): 1.19 µM
TGI (OVCAR-3 ovarian): 2.44 µM
GI50 (OVCAR-4 ovarian): 1.28 µM
TGI (OVCAR-4 ovarian): 2.55 µM
GI50 (OVCAR-5 ovarian): 1.8 µM
TGI (OVCAR-5 ovarian): 3.59 µM
GI50 (OVCAR-8 ovarian): 1.37 µM
TGI (OVCAR-8 ovarian): 2.67 µM
GI50 (PC-3 prostate): 1.78 µM
TGI (PC-3 prostate): 3.2 µM
GI50 (RPMI-8226 leukemia): 0.959 µM
TGI (RPMI-8226 leukemia): 2.42 µM
GI50 (RXF 393 renal): 0.864 µM
TGI (RXF 393 renal): 2.26 µM
GI50 (SF-268 CNS): 1.62 µM
TGI (SF-268 CNS): 3 µM
GI50 (SF-295 CNS): 1.82 µM
TGI (SF-295 CNS): 3.22 µM
GI50 (SF-539 CNS): 1.59 µM
TGI (SF-539 CNS): 2.95 µM
GI50 (SK-MEL-2 melanoma): 1.31 µM
TGI (SK-MEL-2 melanoma): 2.58 µM
GI50 (SK-MEL-28 melanoma): 1.77 µM
TGI (SK-MEL-28 melanoma): 3.16 µM
GI50 (SK-MEL-5 melanoma): 1.51 µM
TGI (SK-MEL-5 melanoma): 2.85 µM
GI50 (SK-OV-3 ovarian): 0.246 µM
TGI (SK-OV-3 ovarian): 3.42 µM
GI50 (SN12C renal): 1.28 µM
TGI (SN12C renal): 2.55 µM
GI50 (SNB-19 CNS): 1.67 µM
TGI (SNB-19 CNS): 3.04 µM
GI50 (SNB-75 CNS): 1.87 µM
TGI (SNB-75 CNS): 3.27 µM
GI50 (SR leukemia): 0.393 µM
TGI (SR leukemia): 1.23 µM
GI50 (SW-620 colon): 1.88 µM
TGI (SW-620 colon): 3.3 µM
GI50 (T-47D breast): 1.02 µM
TGI (T-47D breast): 2.41 µM
GI50 (TK-10 renal): 0.404 µM
TGI (TK-10 renal): 1.88 µM
GI50 (U251 glioblastoma): 1.88 µM
TGI (U251 glioblastoma): 3.31 µM
GI50 (UACC-257 melanoma): 1.52 µM
TGI (UACC-257 melanoma): 2.85 µM
GI50 (UACC-62 melanoma): 1.65 µM
TGI (UACC-62 melanoma): 3.02 µM
GI50 (UO-31 renal): 1.52 µM
TGI (UO-31 renal): 2.86 µM
